Results on 2 compounds are retold here after patent US12673050B2, “Compositions and their use for the treatment of A1-antitrypsin deficiency” (Centessa Pharmaceuticals (UK) Limited, priority 2021, dated 2026).

Data set [1] can be described thus: Human hepatocyte stability. The data set is classed as in vitro ADME. As to conditions: cryopreserved hepatocytes, mixed human hepatocyte suspension, 37° C.; for hepatocyte CLint: read-out: intrinsic clearance (CLint) in human hepatocytes. As for the experimental part:
(§1) The intrinsic clearance (CLint) and half-life of (S)-1-((2-(trifluoromethyl)phenyl)sulfonyl)piperidine-3-carboxylic acid and (R)-1-((2-(trifluoromethyl)phenyl)sulfonyl)piperidine-3-carboxylic acid were measured in a hepatocyte suspension of cryopreserved male C57BL6 mouse hepatocytes or a mixed hepatocyte suspension of cryopreserved human hepatocytes. Briefly, the compounds were incubated with hepatocyte suspensions at 37° C. over a time course and the remaining compound at each time point was assessed by mass spectrometry (UPLC-MS/MS). CLint in mouse hepatocytes was <3 μl/min/10^6 cells and in human hepatocytes was <3 μl/min/10^6 cells for both compounds.

Data set [2] addresses human Z A1AT (Homo sapiens, UniProt P01009, E366K). In words: A1AT cell secretion assay using HEK-Z cells (ELISA). The data set is classed as cell-based. More on the design: expressed in transfected cells; host or cells: HEK-Z cells (HEK-EBNA with Z A1AT plasmid). The note with it: HEK-Z cells, 10, 33, 100 and 333 nM, 48 h. As for the experimental part:
HEK-Z cells, a human embryonic kidney cell line stably transfected with the human Z A1AT gene, were plated into 96 well plates (3.0×10^5 cells/ml with 200 μl of media/well) overnight at 37° C. in a humidified atmosphere containing 5% CO2. Following incubation cells were washed with 200 μl serum-free media three times and media was replaced with treatments in quadruplicate using serum-free media containing vehicle, 10 μM suberanilohydroxamic acid (SAHA), (S)-1-((2-(trifluoromethyl)phenyl)sulfonyl)piperidine-3-carboxylic acid or (R)-1-((2-(trifluoromethyl)phenyl)sulfonyl)piperidine-3-carboxylic acid (at concentrations of 10, 33, 100 and 333 nM) for 48 h in a 37° C. incubator in a final volume of 200 μl. […]
Briefly, a 96 well plate was coated with human A1AT capture antibody overnight at room temperature (1:180 dilution from stock, 100 μl final volume/well). […] After which, 50 μl stop solution (2M H2SO4) was added and optical density (OD) of each well was read at 450 nm with 570 nm blank subtracted from each well using a microplate reader. A 4 parameter logistic curve was constructed using GraphPad Prism 7 and A1AT concentrations were determined in each sample by interpolation from a standard curve and multiplying by the appropriate dilution factor.
The amount of human A1AT secreted from transfected HEK-EBNA cells into the media was measured by ELISA. […]
(In general: An ELISA detects its analyte on a solid surface through an enzyme-linked reagent.)

The target in data set [3] is T1, CYP 2D6 (Homo sapiens, UniProt P10635).
T1 construct: purchased CYPEX; host or cells: E. coli
Nature of the data set: CYP inhibition, E. coli CYPEX membranes with probe substrates. The data set is classed as in vitro ADME. As for the experimental part: (§2) Using E. coli CYPEX membranes in combination with specific probe substrates, the inhibition of individual CYPs by (S)-1-((2-(trifluoromethyl)phenyl)sulfonyl)piperidine-3-carboxylic acid and (R)-1-((2-(trifluoromethyl)phenyl)sulfonyl)piperidine-3-carboxylic acid was assessed (see Weaver et al., 2003, Drug Metab Dispos 31:7, 955-966).

The target in data set [4] is T2, CYP 2C9 (Homo sapiens, UniProt P11712).
T2 construct: purchased CYPEX; host or cells: E. coli
The description is as above. The data set is classed as in vitro ADME. As for the experimental part:
as §2

Data set [5] concerns the target T3, CYP 3A4 (Homo sapiens, UniProt P08684).
T3 construct: purchased CYPEX; host or cells: E. coli
The description is as above. The format is in vitro ADME. As for the experimental part: as §2

Data set [6] deals with T4, CYP 1A2 (Homo sapiens, UniProt P05177).
T4 construct: purchased CYPEX; host or cells: E. coli
T4 sequence (P05177 1-516): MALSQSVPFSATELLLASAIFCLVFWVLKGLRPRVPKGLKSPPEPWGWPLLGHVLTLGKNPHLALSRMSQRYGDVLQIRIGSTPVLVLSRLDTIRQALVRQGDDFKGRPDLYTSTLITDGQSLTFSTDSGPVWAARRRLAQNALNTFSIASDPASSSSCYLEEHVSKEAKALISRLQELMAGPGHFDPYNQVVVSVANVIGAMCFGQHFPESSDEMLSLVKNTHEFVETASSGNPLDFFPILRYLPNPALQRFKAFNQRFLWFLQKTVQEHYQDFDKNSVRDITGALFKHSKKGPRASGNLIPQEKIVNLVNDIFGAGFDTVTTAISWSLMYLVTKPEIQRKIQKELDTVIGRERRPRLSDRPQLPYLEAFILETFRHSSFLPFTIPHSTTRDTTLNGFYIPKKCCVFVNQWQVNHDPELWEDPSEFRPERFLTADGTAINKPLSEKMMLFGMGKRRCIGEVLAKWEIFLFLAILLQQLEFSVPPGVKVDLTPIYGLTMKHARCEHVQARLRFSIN
Described as above. The format is in vitro ADME. As to the method: as §2

Data set [7] concerns the target T5, CYP 2C19 (Homo sapiens, UniProt P33261).
T5 construct: purchased CYPEX; host or cells: E. coli
The description is as above. The format is in vitro ADME. As to the method: as §2

A short description of data set [8]: Mouse hepatocyte stability. The format is in vitro ADME. The note with it: male, C57BL6, cryopreserved hepatocytes in suspension, 37° C.; for hepatocyte CLint: read-out: intrinsic clearance (CLint) in mouse hepatocytes. As for the experimental part: as §1
Data set [9] is described as follows: Plasma protein binding by rapid equilibrium dialysis, human plasma. The data set is classed as in vitro ADME. The note with it: 37° C. As for the experimental part: The extent to which (S)-1-((2-(trifluoromethyl)phenyl)sulfonyl)piperidine-3-carboxylic acid and (R)-1-((2-(trifluoromethyl)phenyl)sulfonyl)piperidine-3-carboxylic acid bound to plasma proteins such as albumin and alpha-1 acid glycoprotein within human or mouse blood was determined by rapid equilibrium dialysis. Compounds were incubated at 5 μM for 4 hours at 37° C. Plasma protein binding in mouse plasma was 78.1% and in human plasma was 91.5% for (S)-1-((2-(trifluoromethyl)phenyl)sulfonyl)piperidine-3-carboxylic acid. Plasma protein binding in mouse plasma was 83.8% and in human plasma was 90.5% for (R)-1-((2-(trifluoromethyl)phenyl)sulfonyl)piperidine-3-carboxylic acid.
(In general: Equilibrium dialysis compares concentrations on both sides of a semipermeable membrane.)

What is called half-life is the time in which the quantity being followed falls by half. Higher therefore signals slow decline. In general, IC50 refers to the concentration that gives 50% inhibition. As usually defined, the fraction unbound is the share of the substance not bound to proteins or other matrix. A high value points to weak binding.

T3 sequence (P08684 whole entry): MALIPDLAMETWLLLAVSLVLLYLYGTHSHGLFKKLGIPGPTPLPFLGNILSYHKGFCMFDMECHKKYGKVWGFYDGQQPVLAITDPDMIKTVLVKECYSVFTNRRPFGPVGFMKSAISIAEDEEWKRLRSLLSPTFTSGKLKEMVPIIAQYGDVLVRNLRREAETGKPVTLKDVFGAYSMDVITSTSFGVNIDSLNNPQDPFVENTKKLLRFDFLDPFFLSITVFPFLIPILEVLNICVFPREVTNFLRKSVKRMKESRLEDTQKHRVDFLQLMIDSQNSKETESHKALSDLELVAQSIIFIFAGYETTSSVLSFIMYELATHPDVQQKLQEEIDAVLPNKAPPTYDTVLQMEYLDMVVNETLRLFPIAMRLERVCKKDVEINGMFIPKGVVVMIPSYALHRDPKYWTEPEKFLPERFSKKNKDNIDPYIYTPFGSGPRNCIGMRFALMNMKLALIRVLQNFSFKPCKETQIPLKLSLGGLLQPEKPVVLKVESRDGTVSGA
human Z A1AT, sequence (P01009 25-418 E366K): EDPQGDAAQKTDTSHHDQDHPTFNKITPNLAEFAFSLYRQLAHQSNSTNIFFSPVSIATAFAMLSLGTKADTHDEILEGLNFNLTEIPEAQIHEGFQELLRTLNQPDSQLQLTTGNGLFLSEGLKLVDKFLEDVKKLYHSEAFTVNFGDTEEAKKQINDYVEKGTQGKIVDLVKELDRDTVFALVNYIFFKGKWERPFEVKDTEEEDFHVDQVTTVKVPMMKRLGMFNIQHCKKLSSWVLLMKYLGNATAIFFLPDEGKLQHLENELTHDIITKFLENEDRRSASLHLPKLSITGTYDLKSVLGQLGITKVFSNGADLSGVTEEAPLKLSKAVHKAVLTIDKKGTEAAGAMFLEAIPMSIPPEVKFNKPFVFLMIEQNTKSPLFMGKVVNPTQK
T1 sequence (P10635 whole entry): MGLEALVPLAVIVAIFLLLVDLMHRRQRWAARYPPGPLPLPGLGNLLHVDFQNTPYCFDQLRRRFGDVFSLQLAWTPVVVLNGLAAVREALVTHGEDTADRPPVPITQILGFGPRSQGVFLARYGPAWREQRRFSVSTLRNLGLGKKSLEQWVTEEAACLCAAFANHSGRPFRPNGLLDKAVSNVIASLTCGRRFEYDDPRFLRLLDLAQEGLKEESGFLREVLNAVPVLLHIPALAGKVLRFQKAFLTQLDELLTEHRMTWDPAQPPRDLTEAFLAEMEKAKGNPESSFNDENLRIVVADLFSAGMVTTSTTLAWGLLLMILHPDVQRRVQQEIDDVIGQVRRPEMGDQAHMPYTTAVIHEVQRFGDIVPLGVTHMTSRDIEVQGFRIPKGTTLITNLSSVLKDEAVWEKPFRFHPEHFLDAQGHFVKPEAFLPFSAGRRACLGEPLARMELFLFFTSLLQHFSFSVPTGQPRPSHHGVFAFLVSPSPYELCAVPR
T2 sequence (P11712 whole entry): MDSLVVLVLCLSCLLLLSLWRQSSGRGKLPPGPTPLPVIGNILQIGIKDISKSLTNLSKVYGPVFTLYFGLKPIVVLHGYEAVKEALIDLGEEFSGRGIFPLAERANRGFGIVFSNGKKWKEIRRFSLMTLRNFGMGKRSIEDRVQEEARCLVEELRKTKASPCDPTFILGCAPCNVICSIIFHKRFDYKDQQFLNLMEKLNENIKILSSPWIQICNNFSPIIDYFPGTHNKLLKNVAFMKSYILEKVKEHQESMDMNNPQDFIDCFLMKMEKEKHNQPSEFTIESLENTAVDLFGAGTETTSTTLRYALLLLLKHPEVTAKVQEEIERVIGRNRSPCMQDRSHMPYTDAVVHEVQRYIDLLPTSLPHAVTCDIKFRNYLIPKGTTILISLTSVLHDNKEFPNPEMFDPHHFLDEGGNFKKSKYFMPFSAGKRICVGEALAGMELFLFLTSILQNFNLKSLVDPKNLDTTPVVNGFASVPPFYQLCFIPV
T5 sequence (P33261 whole entry): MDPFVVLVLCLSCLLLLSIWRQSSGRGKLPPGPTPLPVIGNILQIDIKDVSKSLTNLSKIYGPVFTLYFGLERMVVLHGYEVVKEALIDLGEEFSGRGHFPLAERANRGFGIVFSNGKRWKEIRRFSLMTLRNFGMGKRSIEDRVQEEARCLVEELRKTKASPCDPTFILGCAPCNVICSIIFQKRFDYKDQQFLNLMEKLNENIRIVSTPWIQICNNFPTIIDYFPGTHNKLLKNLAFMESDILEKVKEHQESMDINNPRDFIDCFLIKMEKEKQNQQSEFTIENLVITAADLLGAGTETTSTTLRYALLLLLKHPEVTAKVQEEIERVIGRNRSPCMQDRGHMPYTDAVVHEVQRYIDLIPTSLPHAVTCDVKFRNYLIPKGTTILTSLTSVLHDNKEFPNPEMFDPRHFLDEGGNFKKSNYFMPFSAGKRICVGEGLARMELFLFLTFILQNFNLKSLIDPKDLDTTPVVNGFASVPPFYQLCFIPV

On to `O=C(O)[C@@H]1CCCN(S(=O)(=O)c2ccccc2C(F)(F)F)C1` [(R)-1-((2-(Trifluoromethyl)phenyl)sulfonyl)piperidine-3-carboxylic acid], for which the half-life in [1] and in data set [8] was over 7.67 h throughout. For the same compound, the hepatocyte CLint in data set [1] and in data set [8] was under 3 µL/min/1e6 cells each time. Besides, the “secretion of human Z A1AT into cell supernatant” value in data set [2] was “stimulates secretion of human Z A1AT in a dose dependent manner”. Moreover, the 50% inhibitory concentration (IC50) in data set [3], in data set [4], in data set [5], in [6] and in data set [7] was over 50 µM each time. Moreover, in data set [9], the fraction unbound at 4 h, 5 μM was 0.095.
Consider `O=C(O)[C@H]1CCCN(S(=O)(=O)c2ccccc2C(F)(F)F)C1` [(S)-1-((2-(Trifluoromethyl)phenyl)sulfonyl)piperidine-3-carboxylic acid], for which the half-life in [1] and in [8] was over 7.67 h throughout. Besides, the hepatocyte CLint in data set [1] and in data set [8] was under 3 µL/min/1e6 cells throughout. Moreover, the “secretion of human Z A1AT into cell supernatant” value in data set [2] is on record as “stimulates secretion of human Z A1AT in a dose dependent manner”. Also, the concentration for half-maximal inhibition (IC50) in [3], in data set [4], in data set [5], in data set [6] and in data set [7] was over 50 µM throughout. Besides, the fraction unbound at 4 h, 5 μM in data set [9] was 0.085.
